In patent publication US20230118467A1, “COSMETIC OR PHARMACEUTICAL USE OF AVENANTHRAMIDE L” (priority 2020, published 2023):

Test: Radical-scavenging activity (ABTS assay)
Type: biochemical
Conditions: absorption at 734 nm
Excerpt: The ABTS assay measures the relative ability of antioxidants to scavenge the ABTS radical generated in aqueous phase, as compared with a Trolox (water-soluble vitamin E analogue) standard. The green-blue stable radical cationic chromophore 2,2′-azino-bis(3-ethylbenzothiazoline-6-sulphonate) (ABTS^•+) is generated by reaction with the ABTS salt using a strong oxidising agent (for example potassium permanganate or potassium persulphate) and has absorption maxima at 414, 645, 734 and 815 nm. The reduction of the blue-green ABTS radical by hydrogen-donating antioxidants is measured by the suppression of its characteristic long wave absorption spectrum.
With the aid of the ABTS assay, the antioxidative capacity of Avn L and Avn A were evaluated and compared.
2,2′-azino-bis-(3-ethylbenzothiazoline-6-sulphonic acid) (ABTS) was transformed into the blue-green radical cation ABTS^•+ using potassium persulphate. Through the addition of [6]-paradol and alpha-tocopherol, the radical cations were reduced and discoloration was observed, as determined photometrically by absorption at 734 nm. Inhibition of radical formation in the test substance is calculated by the following formula: […]
where • Atest substance is the absorption in the wells with the test substance including [6]-paradol and alpha-tocopherol • Acontrol is the absorption in the wells with no test substance.
Values for IC50 (the concentration at which radical formation is inhibited by 50%) were calculated from the inhibition of radical formation [%] in a series of dilutions of tested samples.

O=C(/C=C/C=C/c1ccc(O)cc1)Nc1ccc(O)cc1C(=O)O [Avn L, 5-hydroxy-2-[(2E,4E)-5-(4-hydroxyphenyl)penta-2,4-dienamido]benzoic acid]
Mean antioxidant activity (inhibition of radical formation) (5 μM): 40 ± 4% | Mean antioxidant activity (inhibition of radical formation) (5 μM, listed as Avenanthramide L): at least 40% | Mean antioxidant activity (inhibition of radical formation) (10 μM): 74 ± 4% | Mean antioxidant activity (inhibition of radical formation) (10 μM, listed as avenanthramide L): at least 70%
